How the values were obtained:
CRBN-DDB1 = CRBN-DDB1 (Homo sapiens, UniProt Q96SW2); experiment: Compound binding to CRBN by HTRF assay; details: CRBN-DDB1 2.5 nM, Cy5-Thalidomide 100 nM, 30 min; Ki from geometric mean IC50 by Cheng-Prustoff transformation
In short: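 HTRF displacement of Cy5-thalidomide probe (100 nM) from His-CRBN-DDB1 (2.5 nM) with anti-His terbium cryptate, in HEPES/NaCl/TCEP/EDTA/Tween20 buffer. 10-point 1:3 compound series, 30 min at ambient temperature; signal normalised to DMSO and lenalidomide controls, IC50 fitted and Ki derived by Cheng-Prusoff.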

CDK2 [1] = target: T1, CDK2 (Homo sapiens, UniProt P24941); experiment: HiBiT assay (CDK2 degradation); format: cell-based; details: HEK293 clonal line with CRISPR KI HiBiT tag on CDK2, 24 hours, HiBiT Lysis Reagent
T1 construct: HEK293 clonal lines with CRISPR KI HiBiT tag on CDK2 proteins; host or cells: HEK293 clonal line, CRISPR knock-in HiBiT-CDK2, stably expressing LgBiT
Description: HEK293 clonal lines with CRISPR KI HiBiT tag on CDK2 proteins and stably expressing LgBiT protein were obtained from Promega (Madison, WI). Cells were plated at 5000 cells per well using Multiflo (BioTek) in 384-well white solid bottom plates (Corning, 3570BC) in 25 ul volume in DMEM media (DMEM, high glucose, HEPES, no phenol red (ThermoFisher Scientific, 21063029)) containing 10% FBS (Corning, 35-075-CV), 1% Penicillin/Streptomycin (ThermoFisher Scientific, 15140-122). Cells were incubated for 16 hours at 37° C., 5% CO2. 75 nL of a compound at 30 μM were dosed into the plate using an Echo® 650 liquid handler (Labcyte). Cells were incubated at 37° C., 5% CO2 for 24 hours. 5 ul of HiBiT Lysis Reagent (Promega, N3030) is added using Combi Multidrop (ThermoFisher Scientific), plates are incubated for 15′ at 37° C., 5% CO2 and then signal was read on a Pherastar FSX using “LUM plus” optic module.
Analysis was performed in Scinamic (Scinamic, Cambridge, MA). Luminescence response (R) was calculated by the formula: response=100*(S−N)/(P−N) where S is the signal of the well, N and P the mean negative and positive control values respectively of the same plate. The luminescence response was then fitted in Scinamic using a 3-parameter agonist logistic fit (hillslope=1, EC50>0, top/bottom unconstrained).

CDK2 [2] = target: T1, CDK2; experiment: NanoBiT assay (CDK2 degradation); format: cell-based; details: HEK293, HEK293 clonal line with CRISPR KI HiBiT tag on CDK2, Endurazine live cell substrate, 24 hours
In short: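 HEK293 cells with endogenous HiBiT-tagged CDK2 knock-in and stable LgBiT, with Endurazine live-cell substrate; cells were dosed with compound (30 μM stock) for 24 h at 37 °C, then luminescence was read. Response normalised to plate negative/positive controls and fitted to a 3-parameter logistic (hillslope=1) for EC50.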

CRBN-DDB1, sequence (Q96SW2 whole entry): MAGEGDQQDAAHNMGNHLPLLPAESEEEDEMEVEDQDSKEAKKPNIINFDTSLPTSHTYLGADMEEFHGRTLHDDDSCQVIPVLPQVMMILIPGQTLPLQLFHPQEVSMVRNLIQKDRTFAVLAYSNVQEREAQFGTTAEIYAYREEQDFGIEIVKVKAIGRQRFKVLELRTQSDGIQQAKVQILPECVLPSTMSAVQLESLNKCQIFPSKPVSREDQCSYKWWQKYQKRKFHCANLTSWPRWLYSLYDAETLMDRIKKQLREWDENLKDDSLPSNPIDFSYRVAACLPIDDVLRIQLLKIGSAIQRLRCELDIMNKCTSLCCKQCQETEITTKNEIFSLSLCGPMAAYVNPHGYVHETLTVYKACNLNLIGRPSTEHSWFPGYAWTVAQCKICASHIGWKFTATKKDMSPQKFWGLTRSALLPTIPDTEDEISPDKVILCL
CRBN-DDB1, sequence (Q16531 whole entry partner): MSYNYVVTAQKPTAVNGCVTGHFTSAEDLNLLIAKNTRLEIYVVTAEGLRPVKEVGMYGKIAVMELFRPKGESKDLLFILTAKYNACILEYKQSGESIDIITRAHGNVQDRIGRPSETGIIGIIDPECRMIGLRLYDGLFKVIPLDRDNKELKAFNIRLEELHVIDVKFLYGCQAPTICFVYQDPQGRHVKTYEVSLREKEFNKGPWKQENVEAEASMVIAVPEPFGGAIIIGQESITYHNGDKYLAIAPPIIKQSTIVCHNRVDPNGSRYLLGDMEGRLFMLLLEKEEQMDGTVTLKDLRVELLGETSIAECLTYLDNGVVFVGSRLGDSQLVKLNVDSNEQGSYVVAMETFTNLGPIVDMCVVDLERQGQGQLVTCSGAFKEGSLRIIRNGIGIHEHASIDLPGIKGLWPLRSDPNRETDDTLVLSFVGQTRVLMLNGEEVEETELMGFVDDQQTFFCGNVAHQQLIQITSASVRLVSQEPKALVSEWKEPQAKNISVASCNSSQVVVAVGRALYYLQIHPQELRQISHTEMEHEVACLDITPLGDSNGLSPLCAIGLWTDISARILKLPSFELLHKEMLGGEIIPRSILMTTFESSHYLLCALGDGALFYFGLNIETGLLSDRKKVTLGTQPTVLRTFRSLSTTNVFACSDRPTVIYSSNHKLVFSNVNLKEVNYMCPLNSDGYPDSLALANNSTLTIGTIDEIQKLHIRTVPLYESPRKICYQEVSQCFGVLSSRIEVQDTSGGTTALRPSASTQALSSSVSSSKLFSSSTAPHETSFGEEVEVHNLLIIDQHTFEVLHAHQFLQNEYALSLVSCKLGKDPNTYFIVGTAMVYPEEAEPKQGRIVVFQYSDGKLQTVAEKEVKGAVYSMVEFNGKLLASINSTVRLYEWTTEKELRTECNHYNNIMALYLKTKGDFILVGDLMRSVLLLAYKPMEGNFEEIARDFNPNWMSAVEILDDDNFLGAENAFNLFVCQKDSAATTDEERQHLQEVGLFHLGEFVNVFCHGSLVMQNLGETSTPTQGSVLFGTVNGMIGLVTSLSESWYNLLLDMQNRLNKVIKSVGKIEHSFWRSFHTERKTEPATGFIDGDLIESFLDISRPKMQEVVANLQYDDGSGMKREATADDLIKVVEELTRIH

Compound | Ki (CRBN-DDB1) | Dmax (CDK2 [1]) | Dmax (CDK2 [2])
COC1CC(COC(=O)NCc2ccc3c(c2)C(=O)N(C2CCC(=O)NC2=O)C3)C1 (stereo not drawn) [Compound 66, (3-methoxycyclobutyl)methyl N-{[2-(2,6-dioxopiperidin-3-yl)-3-oxo-2,3-dihydro-1H-isoindol-5-yl]methyl}carbamate] | 100 to 1000 nM | 10 to 50% | –
O=C1CCC(N2Cc3ccc(CNC(=O)OC4CC5(CCCCC5)C4)cc3C2=O)C(=O)N1 (stereo not drawn) [Compound 4, spiro[3.5]nonan-2-yl ((2-(2,6-dioxopiperidin-3-yl)-3-oxoisoindolin-5-yl)methyl)carbamate] | 100 to 1000 nM | 50 to 80% | –
O=C1CCC(N2Cc3ccc(CNC(=O)OCC4CCc5ccccc54)cc3C2=O)C(=O)N1 (stereo not drawn) [Compound 18, (2,3-dihydro-1H-inden-1-yl)methyl N-{[2-(2,6-dioxopiperidin-3-yl)-3-oxo-2,3-dihydro-1H-isoindol-5-yl]methyl}carbamate] | 100 to 1000 nM | 10 to 50% | –
O=C1CCC(N2Cc3ccc(CNC(=O)O[C@@H]4CO[C@@H]4c4ccccc4)cc3C2=O)C(=O)N1 (mixture of isomers) [Compound 37, rac-(2R,3R)-2-phenyloxetan-3-yl N-{[2-(2,6-dioxopiperidin-3-yl)-3-oxo-2,3-dihydro-1H-isoindol-5-yl]methyl}carbamate] | 100 to 1000 nM | ≤ 10% | –
O=C1CCC(N2Cc3ccc(CNC(=O)OCC4CCOC4)cc3C2=O)C(=O)N1 (stereo not drawn) [Compound 43, (oxolan-3-yl)methyl N-{[2-(2,6-dioxopiperidin-3-yl)-3-oxo-2,3-dihydro-1H-isoindol-5-yl]methyl}carbamate] | ≤ 100 nM | 10 to 50% | –
O=C1CCC(N2Cc3ccc(CNC(=O)OC4CCOC4)cc3C2=O)C(=O)N1 (stereo not drawn) [Compound 13, oxolan-3-yl N-{[2-(2,6-dioxopiperidin-3-yl)-3-oxo-2,3-dihydro-1H-isoindol-5-yl]methyl}carbamate] | 100 to 1000 nM | ≤ 10% | –
O=C1CCC(N2Cc3ccc(CNC(=O)OC4Cc5ccccc54)cc3C2=O)C(=O)N1 (stereo not drawn) [Compound 35, bicyclo[4.2.0]octa-1,3,5-trien-7-yl N-{[2-(2,6-dioxopiperidin-3-yl)-3-oxo-2,3-dihydro-1H-isoindol-5-yl]methyl}carbamate] | ≤ 100 nM | 10 to 50% | –
O=C1CCC(N2Cc3ccc(CNC(=O)OCC4CC45CCOCC5)cc3C2=O)C(=O)N1 (stereo not drawn) [Compound 52, {6-oxaspiro[2.5]octan-1-yl}methyl N-{[2-(2,6-dioxopiperidin-3-yl)-3-oxo-2,3-dihydro-1H-isoindol-5-yl]methyl}carbamate] | 100 to 1000 nM | 10 to 50% | –
O=C1CCC(N2Cc3ccc(CNC(=O)OCC4CCC(F)(F)CC4)cc3C2=O)C(=O)N1 (stereo not drawn) [Compound 88, (4,4-difluorocyclohexyl)methyl N-{[2-(2,6-dioxopiperidin-3-yl)-3-oxo-2,3-dihydro-1H-isoindol-5-yl]methyl}carbamate] | 100 to 1000 nM | 10 to 50% | –
CC(C)(C)C1CC(OC(=O)NCc2ccc3c(c2)C(=O)N(C2CCC(=O)NC2=O)C3)C1 (stereo not drawn) [Compound 84, 3-tert-butylcyclobutyl N-{[2-(2,6-dioxopiperidin-3-yl)-3-oxo-2,3-dihydro-1H-isoindol-5-yl]methyl}carbamate] | 100 to 1000 nM | 50 to 80% | –
O=C1CCC(N2Cc3ccc(CNC(=O)OCC45CC(c6ccccc6)(C4)C5)cc3C2=O)C(=O)N1 (stereo not drawn) [Compound 6, (3-phenylbicyclo[1.1.1]pentan-1-yl)methyl ((2-(2,6-dioxopiperidin-3-yl)-3-oxoisoindolin-5-yl)methyl)carbamate] | – | 10 to 50% | –
C[C@H]1C[C@@H]1COC(=O)NCc1ccc2c(c1)C(=O)N(C1CCC(=O)NC1=O)C2 (stereo partly drawn) [Compound 25, [(1S,2S)-2-methylcyclopropyl]methyl N-{[2-(2,6-dioxopiperidin-3-yl)-3-oxo-2,3-dihydro-1H-isoindol-5-yl]methyl}carbamate] | 100 to 1000 nM | ≤ 10% | –
O=C1CCC(N2Cc3ccc(CNC(=O)OCC4CC(F)(F)C4)cc3C2=O)C(=O)N1 (stereo not drawn) [Compound 46, (3,3-difluorocyclobutyl)methyl N-{[2-(2,6-dioxopiperidin-3-yl)-3-oxo-2,3-dihydro-1H-isoindol-5-yl]methyl}carbamate] | ≤ 100 nM | 10 to 50% | –
CC1(COC(=O)NCc2ccc3c(c2)C(=O)N(C2CCC(=O)NC2=O)C3)CCCCO1 (stereo not drawn) [Compound 64, (2-methyloxan-2-yl)methyl N-{[2-(2,6-dioxopiperidin-3-yl)-3-oxo-2,3-dihydro-1H-isoindol-5-yl]methyl}carbamate] | ≤ 100 nM | 10 to 50% | –
COCC(OC(=O)NCc1ccc2c(c1)C(=O)N(C1CCC(=O)NC1=O)C2)C1CC1 (stereo not drawn) [Compound 49, 1-cyclopropyl-2-methoxyethyl N-{[2-(2,6-dioxopiperidin-3-yl)-3-oxo-2,3-dihydro-1H-isoindol-5-yl]methyl}carbamate] | 100 to 1000 nM | – | 10 to 50%

The remaining lines, values ahead:

Ki (CRBN-DDB1) | Dmax (CDK2 [1]) | Dmax (CDK2 [2]) | Compound
≤ 100 nM | 50 to 80% | – | O=C1CCC(N2Cc3ccc(CNC(=O)OCC4CC5(C4)CC54CCC4)cc3C2=O)C(=O)N1 (stereo not drawn) [Compound 93, {dispiro[3.0.3^5.1^4]nonan-2-yl}methyl N-{[2-(2,6-dioxopiperidin-3-yl)-3-oxo-2,3-dihydro-1H-isoindol-5-yl]methyl}carbamate]
100 to 1000 nM | – | 10 to 50% | C[C@H]1C[C@@H](COC(=O)NCc2ccc3c(c2)C(=O)N(C2CCC(=O)NC2=O)C3)C1 (stereo partly drawn) [Compound 120, ((1s,3s)-3-methylcyclobutyl)methyl ((2-(2,6-dioxopiperidin-3-yl)-3-oxoisoindolin-5-yl)methyl)carbamate]
100 to 1000 nM | – | 10 to 50% | CC(OC(=O)NCc1ccc2c(c1)C(=O)N(C1CCC(=O)NC1=O)C2)C1CC2(CCC2)C1 (stereo not drawn) [Compound 113, 1-(spiro[3.3]heptan-2-yl)ethyl ((2-(2,6-dioxopiperidin-3-yl)-3-oxoisoindolin-5-yl)methyl)carbamate]
≤ 100 nM | – | 50 to 80% | O=C1CCC(N2Cc3c(Br)cc(CNc4nnc(C5CC6(CCC6)C5)o4)cc3C2=O)C(=O)N1 (stereo not drawn) [Compound 138, 3-(4-bromo-1-oxo-6-(((5-(spiro[3.3]heptan-2-yl)-1,3,4-oxadiazol-2-yl)amino)methyl)isoindolin-2-yl)piperidine-2,6-dione]
100 to 1000 nM | – | 10 to 50% | O=C1CCC(N2Cc3ccc(CNC(=O)OC(Cc4ccccc4)C4CC5(CCC5)C4)cc3C2=O)C(=O)N1 (stereo not drawn) [Compound 109, 2-phenyl-1-(spiro[3.3]heptan-2-yl)ethyl ((2-(2,6-dioxopiperidin-3-yl)-3-oxoisoindolin-5-yl)methyl)carbamate]
100 to 1000 nM | – | 10 to 50% | O=C1CCC(N2Cc3ccc(CNC(=O)OC4CCC5(CC4)CC5)cc3C2=O)C(=O)N1 (stereo not drawn) [Compound 130, spiro[2.5]octan-6-yl ((2-(2,6-dioxopiperidin-3-yl)-3-oxoisoindolin-5-yl)methyl)carbamate]
100 to 1000 nM | – | > 80% | O=C1CCC(N2C(=O)c3ccc(CNC(=O)OCC4CC5(CCC5)C4)cc3C2=O)C(=O)N1 (stereo not drawn) [Compound 117, spiro[3.3]heptan-2-ylmethyl ((2-(2,6-dioxopiperidin-3-yl)-1,3-dioxoisoindolin-5-yl)methyl)carbamate]
≤ 100 nM | – | 10 to 50% | CC1(CCCCOC(=O)NCc2ccc3c(c2)C(=O)N(C2CCC(=O)NC2=O)C3)CC1 (stereo not drawn) [Compound 134, 4-(1-methylcyclopropyl)butyl ((2-(2,6-dioxopiperidin-3-yl)-3-oxoisoindolin-5-yl)methyl)carbamate]
100 to 1000 nM | – | 10 to 50% | O=C1CCC(N2Cc3ccc(CNC(=O)OC4CC5(CCCC5)C4)cc3C2=O)C(=O)N1 (stereo not drawn) [Compound 121, spiro[3.4]octan-2-yl ((2-(2,6-dioxopiperidin-3-yl)-3-oxoisoindolin-5-yl)methyl)carbamate]
100 to 1000 nM | – | 50 to 80% | O=C1CCC(N2Cc3ccc(C4(NC(=O)OCC5CC6(CCC6)C5)CC4)cc3C2=O)C(=O)N1 (stereo not drawn) [Compound 118, spiro[3.3]heptan-2-ylmethyl (1-(2-(2,6-dioxopiperidin-3-yl)-3-oxoisoindolin-5-yl)cyclopropyl)carbamate]
100 to 1000 nM | – | 10 to 50% | CN(C)C(=O)N1CC(OC(=O)NCc2ccc3c(c2)C(=O)N(C2CCC(=O)NC2=O)C3)C1 (stereo not drawn) [Compound 112, 1-(dimethylcarbamoyl)azetidin-3-yl ((2-(2,6-dioxopiperidin-3-yl)-3-oxoisoindolin-5-yl)methyl)carbamate]

Reference: patent US20240317706A1, “COMPOUNDS THAT MEDIATE PROTEIN DEGRADATION AND METHODS OF USE THEREOF” (Monte Rosa Therapeutics, Inc., priority 2021, published 2024)
